We go through one sequence from US20260345742A1, “SYNTHETIC SURFACTANTS FOR INHIBITING CORONAVIRUS INFECTION” (priority 2022, published 2026).

For orientation: koff means the first-order rate constant of dissociation. By Kd is commonly meant the constant that tells how readily two partners part at equilibrium. A word on the kon: it is the second-order rate constant of association. A high value points to fast association.

The target of one data set is SARS-CoV-2 RBD (Severe acute respiratory syndrome coronavirus 2, UniProt P0DTC2). Nature of the data set: SPR binding (Biacore T200) of SARS-CoV-2 RBD to chip-linked biotinylated B-YL. The procedure: FIG. 3. Surface plasmon resonance (SPR) sensorgrams of rbCovid-19-RBD protein construct and human ACE2 receptor binding to immobilized B-YL peptide. The B-YL peptide was biotinylated to facilitate attachment to the Biacore chip as described in Methodology. Solutions of 1 μM recombinant protein in HBS-EP buffer (10 mM Hepes, pH 7.4, 150 mM NaCl, 3 mM EDTA, 0.005% surfactant P20) were then flowed over the respective chip-linked peptides. The concentration dependent binding of the viral RBD construct (A) and the human ACE-2 receptor (B) to the B-YL lung surfactant peptide are shown with the SPR response indicated in relative response units (RU) on the graph's Y-axis.
One of the best in vitro determinations of the binding of proteins and peptides to one another is by surface plasmon resonance (SPR). This technique allows the direct measurement of the binding of a peptide or protein by attaching one protein to a sensor chip surface and flowing a solution containing a second protein over the surface. The binding affinities derived from such measurements are very similar to those observed in vivo.
The binding affinity of the B-YL lung surfactant peptide to the coronavirus recombinant spike protein construct of SARS-CoV-2 (viral spike protein amino acid sequence) that included the Receptor Binding Domain (RBD) was measured with SPR spectroscopy using a Biacore T200 system (GE Healthcare Bio-Sciences Corp, Piscataway, NJ 08855).
B-YL peptide binding to the recombinant SARS-CoV-2 RBD domain dissolved in a series of seven concentrations (1,000, 500, 250, 125, 62.5, 31.25 and 0 nM) in the analyte and was determined from the sensorgrams, in which arbitrary response units (RUS) are recorded as a function of time.
In Table 1, association and dissociation kinetic rate constants (kon, koff) and equilibrium dissociation constants (KD) were calculated from surface plasmon resonance (SPR) kinetic measurements for aqueous SARS-CoV-2 RBD expressed protein flowing past B-YL surfactant peptide on the Biacore chip. The recombinant SARS-CoV-2 RBD protein was dissolved in running buffer and was flowed past the sensor chip with a BiocoreT200 system (Methods). Kinetic rate constants and equilibrium dissociation constants were determined from curve fitting analysis of SPR traccs.
The binding affinities of the B-YL lung surfactant peptide to the Angiotensin-Converting Enzyme 2 (ACE-2) receptor recombinant construct (human amino acid sequence) and the coronavirus recombinant spike protein construct of Covid-19 (viral spike protein amino acid sequence) that included the Receptor Binding Domain (RBD) were measured with surface plasmon resonance (SPR) spectroscopy using a Biacore T200 system (GE Healthcare Bio-Sciences Corp, Piscataway, NJ 08855).
The SPR binding study was accomplished by associating the ligand (B-YL peptide) immobilized on the SPR sensor surface, and the solute containing the ACE-2 or the Covid-19 protein construct was then flowed past the sensor linked molecule. The binding of the solute to the sensor surface ligand results in an evanescent sensor response, is measured in Response Units (RU) that are proportional to the bound mass.
In Table 3, Association and dissociation kinetic rate constants (kon, koff) and equilibrium dissociation constants (KD) were calculated from surface plasmon resonance (SPR) kinetic measurements for aqueous RBD, and ACE2 flowing past BYL attached to a Biacore chip. Proteins were dissolved in running buffer (10 mM HEPES, 150 mM NaCl, 3 mM EDTA, 0.005% Surfactant P20, pH 7.4) and were flowed past biotin linked B-YL peptide construct on a CSM sensor chip with a Biacore system (Methodology). Kinetic rate constants and equilibrium dissociation constants were determined from curve fitting analysis of SPR traces.
Background: Surface plasmon resonance follows binding to a sensor surface in real time, without labels.

The target of the next data set is ACE2 (Homo sapiens, UniProt Q9BYF1). Nature of the data set: SPR binding (Biacore T200) of ACE2 to chip-linked biotinylated B-YL.
Sequence of ACE2 (Q9BYF1 18-805): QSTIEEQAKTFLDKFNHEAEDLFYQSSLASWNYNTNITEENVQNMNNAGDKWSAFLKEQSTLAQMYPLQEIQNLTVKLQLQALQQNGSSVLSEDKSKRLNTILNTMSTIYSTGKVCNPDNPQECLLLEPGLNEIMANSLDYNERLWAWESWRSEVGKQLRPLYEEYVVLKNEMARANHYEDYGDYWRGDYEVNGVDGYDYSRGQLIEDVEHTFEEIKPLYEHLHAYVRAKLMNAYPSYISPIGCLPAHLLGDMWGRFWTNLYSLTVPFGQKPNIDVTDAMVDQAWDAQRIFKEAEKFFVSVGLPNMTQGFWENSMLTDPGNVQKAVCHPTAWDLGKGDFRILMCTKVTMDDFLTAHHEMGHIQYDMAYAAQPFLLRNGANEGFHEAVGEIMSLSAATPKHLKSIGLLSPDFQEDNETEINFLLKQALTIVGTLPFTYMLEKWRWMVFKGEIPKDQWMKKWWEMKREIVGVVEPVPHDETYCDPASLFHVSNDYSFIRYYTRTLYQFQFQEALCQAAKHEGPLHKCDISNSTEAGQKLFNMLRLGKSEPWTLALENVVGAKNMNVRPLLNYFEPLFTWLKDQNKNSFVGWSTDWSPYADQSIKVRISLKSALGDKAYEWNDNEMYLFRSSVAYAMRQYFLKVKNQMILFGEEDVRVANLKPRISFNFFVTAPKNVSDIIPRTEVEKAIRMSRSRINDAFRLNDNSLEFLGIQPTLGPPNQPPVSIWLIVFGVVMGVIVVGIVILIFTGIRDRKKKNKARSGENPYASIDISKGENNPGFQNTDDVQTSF
Data set [1] in a line: Aqueous solution solubility. It is filed as physicochemical. The conditions noted are these: stated as the reason for biotinylation.

Where two headings read alike, the source gives them in different places. Ends that are not written are not given here.

On to “FPIPLPYYWLYRALIKRIQALIPKGGRLLPQLVYRLVLRYS [B-YL]”, for which the koff at SARS-CoV-2 RBD is 5.08 × 10^−02 1/s; on SARS-CoV-2 RBD (pH 7.4), 0.0508 s⁻¹; on ACE2 (pH 7.4), 0.013 s⁻¹. Moreover, the Kd on SARS-CoV-2 RBD (RBD(wt) - B-YL, expt. data - SPR (Table 2)) was found to be 57 µM; at SARS-CoV-2 RBD (Table 1, aqueous SARS-CoV-2-RBD over chip-associated biotinylated B-YL, HBS-EP pH 7.4, 37 °C, KD=koff/kon), 56.9 µM; at SARS-CoV-2 RBD (Table 3, aqueous RBD over chip-linked B-YL, pH 7.4, 37 °C, KD=koff/kon), 57 µM; at ACE2, 4.37 µM. For the same sequence, the kon came to 890 M⁻¹ s⁻¹ at SARS-CoV-2 RBD (pH 7.4, Table 1, aqueous SARS-CoV-2-RBD over chip-associated biotinylated B-YL, HBS-EP pH 7.4, 37 °C); 892 M⁻¹ s⁻¹ on SARS-CoV-2 RBD (pH 7.4, Table 3, aqueous RBD over chip-linked B-YL, pH 7.4, 37 °C); 2980 M⁻¹ s⁻¹ at ACE2 (pH 7.4). In data set [1], the aqueous solution solubility result is listed as “limited aqueous solution solubility”.
